Assay results taken from paper PMC2667786 (Structure (London, England : 1993), 2009).

Molecular target: T1, AvPCP (Trichormus variabilis, UniProt Q3M7N3)
T1 sequence (Q3M7N3 1-234): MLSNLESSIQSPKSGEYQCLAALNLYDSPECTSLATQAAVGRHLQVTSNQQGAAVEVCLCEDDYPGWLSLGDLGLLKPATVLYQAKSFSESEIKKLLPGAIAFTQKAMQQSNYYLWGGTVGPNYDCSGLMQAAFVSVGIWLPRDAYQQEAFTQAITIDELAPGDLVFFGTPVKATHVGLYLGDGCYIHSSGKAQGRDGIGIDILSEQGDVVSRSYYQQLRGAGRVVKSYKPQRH
Assay: hydrolysis of murein tripeptide to Ala-γ-D-Glu and DAP
Type: biochemical
Settings: assay details only in Supplemental Data

C[C@H](N)C(=O)N[C@H](CCC(=O)N[C@@H](CCC[C@@H](N)C(=O)O)C(=O)O)C(=O)O [Ala-γ-D-Glu-DAP]
hydrolysis of murein tripeptide to Ala-γ-D-Glu and DAP: AvPCP can, indeed, hydrolyze Ala-γ-D-Glu-DAP to Ala-γ-D-Glu and DAP
